Where two headings read alike, the source gives them in different places. Ends that are not written are not given here.
What was measured:
[1] = design: method as in 2 sources, one per row (each row's own in cited_ref): ref 19 = [19]; doi:10.1016/j.procbio.2018.06.001; 19. Jin J. Ahn C. Je J. Puri Fi Cation and Characterization of Antioxidant Peptides from Enzymatically Hydrolyzed Ark Shell ( Scapharca subcrenata ) Process Biochem. 2018 72 170 176 10.1016/j.procbio. ||| ref 21 = [21]; PMID 26304349; doi:10.1016/j.foodchem.2015.07.015; 21. Zheng L. Zhao M. Xiao C. Zhao Q. Su G. Practical Problems When Using ABTS Assay to Assess the Radical-Scavenging Activity of Peptides: Importance of Controlling Reaction PH and Time Food Chem. 201; conditions: cited from earlier work; for ABTS antioxidant activity: ark shell (Scapharca subcrenata) peptides, values converted to the same units
[2] = ark shell (Scapharca subcrenata) peptides, values converted to the same units; cited from earlier work
From the text: In the ORAC assay, the values were 0.334 µmol TE/µmol of peptide for P1 and ...

ACE = system: ACE; design: method as in 2 sources, one per row (each row's own in cited_ref): ref 27 = [27]; PMID 29533693; doi:10.1080/10408398.2018.1452182; 27. Yathisha U.G. Bhat I. Karunasagar I. Mamatha B.S. Antihypertensive Activity of Fish Protein Hydrolysates and Its Peptides Crit. Rev. Food Sci. Nutr. 2019 59 2363 2374 10.1080/10408398.2018.1452182 ||| ref 28 = [28]; PMID 31671730; doi:10.3390/md17110613; 28. Abachi S. Bazinet L. Beaulieu L. Antihypertensive and Angiotensin-i-Converting Enzyme (ACE)-Inhibitory Peptides from Fish as Potential Cardioprotective Compounds Mar. Drugs 2019 17 613 10.3390/md1; conditions: cited from earlier work
α-glucosidase [3] = biological target: α-glucosidase (Saccharomyces cerevisiae, UniProt P53341); test: biochemical
Chain of α-glucosidase (Saccharomyces cerevisiae, UniProt P53341) (P53341 whole entry): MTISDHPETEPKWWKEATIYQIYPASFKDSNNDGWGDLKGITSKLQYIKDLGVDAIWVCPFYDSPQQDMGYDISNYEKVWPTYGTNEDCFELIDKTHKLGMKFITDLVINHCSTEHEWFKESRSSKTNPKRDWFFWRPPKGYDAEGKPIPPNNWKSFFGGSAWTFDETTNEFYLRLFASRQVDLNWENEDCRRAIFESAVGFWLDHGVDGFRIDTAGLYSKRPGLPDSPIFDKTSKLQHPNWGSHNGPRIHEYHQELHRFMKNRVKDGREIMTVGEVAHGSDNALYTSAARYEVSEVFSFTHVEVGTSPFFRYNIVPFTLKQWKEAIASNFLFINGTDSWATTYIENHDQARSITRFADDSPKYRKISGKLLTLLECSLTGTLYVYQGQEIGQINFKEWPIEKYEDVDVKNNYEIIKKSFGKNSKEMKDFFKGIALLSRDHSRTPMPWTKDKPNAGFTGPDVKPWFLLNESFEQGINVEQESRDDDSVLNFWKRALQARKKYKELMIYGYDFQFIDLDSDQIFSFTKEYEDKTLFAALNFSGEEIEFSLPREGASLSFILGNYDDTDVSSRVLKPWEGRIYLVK
Description: The α-glucosidase inhibitory activity was evaluated through the following method, outlined by Vilas-Boas et al. [42]. The assay was performed in a 96-well microplate (Stansted) and incubated at 25 °C for 5 min, and the absorbance was monitored at 405 nm with a microplate reader (Synergy H1, BioTek Instruments, Winooski, VT, USA). A negative control was performed, with 50 μL of a buffer solution that replaced the peptides. […] Each sample and control analysis was triplicated. The inhibition of α-glucosidase was quantified as the concentration required to inhibit 50% of the enzymatic activity (IC50). The IC50 values were determined using non-linear modelling of the data obtained.

α-glucosidase [4] = biological target: α-glucosidase; design: method as in PMID 34445765; conditions: peptides hydrolyzed from food sources; cited from earlier work
Description: The peptides were tested for antidiabetic activity based on the capacity to inhibit 50% of […].

[5] = peptides from fish protein hydrolysates

For `N[C@@H](Cc1ccc(O)cc1)C(=O)O` [Tyr], the “ABTS radical scavenging value” ([1]; pH 6.0) is given as 2.89 µmol TE/µmol and the “ABTS radical scavenging value” ([1]; pH 8.0) is given as 6.55 µmol TE/µmol.

In the case of HPLDSLCL [P2], the ORAC antioxidant activity [2] is given as 0.239 µmol TE/µmol of peptide and the ABTS antioxidant activity [1] is given as 0.005 µmol TE/µmol of peptide.

For “HWTTQR [peptide from Syngnathus schlegeli protein hydrolysate]”, the “ACE inhibition IC50” value (ACE; [5]) is given as 1440 µg/mL.

For IKPLNY, the “ACE inhibition IC50” value (ACE; synthesized peptide before/after fragmentation in digestion) is listed as 32 µg/mL.

In the case of MCLDSCLL [P1], the ORAC antioxidant activity [2] is given as 0.334 µmol TE/µmol of peptide and the ABTS antioxidant activity [1] is given as 0.678 µmol Trolox equivalents (TE)/µmol of peptide.

In the case of PAPPPPPP [HdPPP], the IC50 (α-glucosidase [3]; α-glucosidase IC50, 25 °C, 5 min, absorbance 405 nm, mean ± standard deviation, n = 3) is reported as 2210 µM and the IC50 (α-glucosidase [3]; α-glucosidase IC50, same result in molar units) is reported as 2210 µM.

In the case of RVPSLM, the IC50 (α-glucosidase [4]) is listed as 23.1 µM.

In the case of “TFPHGP [peptide from Syngnathus schlegeli protein hydrolysate]”, the “ACE inhibition IC50” value (ACE; [5]) is listed as 600 µg/mL.

For TPSPR, the IC50 (α-glucosidase [4]) is given as 40 µM.

Source: article PMC11857211, “Bioprospecting Bioactive Peptides in Halobatrachus didactylus Body Mucus: From In Silico Insights to Essential In Vitro Validation” (Marine Drugs, 2025)
